Measured values published in patent US20030165854A1, “Marker genes responding to treatment with toxins” (priority 2000, published 2003).

What was measured:
[1] = tested on: rat liver cDNAs SEQ ID NOs: 1-61; assay type: in vivo, Han/Wistar rat; settings: Strain HW
[2] = tested on: rat liver cDNAs SEQ ID NOs: 1-61; assay type: in vivo, Han/Wistar rat; settings: Strain HW, Sex F

S=C=Nc1cccc2ccccc12 [ANIT, α-naphthylisothiocyanate]
3: Maximum Abundance, SEQ ID NO 15, Clone ID 700024728 [1] | Maximum Abundance, SEQ ID NO 16, Clone ID 700024834 [1] | Maximum Abundance, SEQ ID NO 20, Clone ID 700063569 [1] | Maximum Abundance, SEQ ID NO 21, Clone ID 700064131 [1] | Maximum Abundance, SEQ ID NO 23, Clone ID 700067778 [1] | Maximum Abundance, SEQ ID NO 24, Clone ID 700123633 [1] | Maximum Abundance, SEQ ID NO 34, Clone ID 700177158 [1] | Maximum Abundance, SEQ ID NO 35, Clone ID 700179766 [1] | Maximum Abundance, SEQ ID NO 36, Clone ID 700181614 [1] | Maximum Abundance, SEQ ID NO 38, Clone ID 700185871 [1] | Maximum Abundance, SEQ ID NO 39, Clone ID 700198357 [1] | Maximum Abundance, SEQ ID NO 41, Clone ID 700248367 [1] | Maximum Abundance, SEQ ID NO 48, Clone ID 700363174 [1] | Maximum Abundance, SEQ ID NO 50, Clone ID 700480077 [1] | Maximum Abundance, SEQ ID NO 51, Clone ID 700483222 [1] | Maximum Abundance, SEQ ID NO 55, Clone ID 701197728 [1] | Maximum Abundance, SEQ ID NO 56, Clone ID 701257766 [1] | Maximum Abundance, SEQ ID NO 57, Clone ID 701341861 [1] | Maximum Abundance, SEQ ID NO 60, Clone ID 701597659 [1] | Maximum Abundance, SEQ ID NO 14, Clone ID 700330824 ([1]; Sex F) | Maximum Abundance, SEQ ID NO 12, Clone ID 700062506 [2]
7: Maximum Abundance, SEQ ID NO 33, Clone ID 700175249 [1]
4: Maximum Abundance, SEQ ID NO 17, Clone ID 700059927 [1] | Maximum Abundance, SEQ ID NO 18, Clone ID 700060675 [1] | Maximum Abundance, SEQ ID NO 29, Clone ID 700137416 [1] | Maximum Abundance, SEQ ID NO 32, Clone ID 700144406 [1] | Maximum Abundance, SEQ ID NO 40, Clone ID 700230123 [1] | Maximum Abundance, SEQ ID NO 45, Clone ID 700305380 [1] | Maximum Abundance, SEQ ID NO 61, Clone ID 701637512 [1]
5: Maximum Abundance, SEQ ID NO 19, Clone ID 700062240 [1] | Maximum Abundance, SEQ ID NO 49, Clone ID 700478138 [1] | Maximum Abundance, SEQ ID NO 53, Clone ID 700818852 [1]
8: Maximum Abundance, SEQ ID NO 31, Clone ID 700140450 [1] | Maximum Abundance, SEQ ID NO 54, Clone ID 700937735 [1]
